Among the test systems are DLD-1; DMS-114; KM-20L2; LXFL 529; M19-MEL; RXF 631; XF498; HOP-18.
What all share (assay): NCI anticancer screen, dose series, 48 h

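In this assay, cells in 96-well plates receive the compound at five concentrations for 48 hours. Endpoints are linearly interpolated between the surrounding concentrations. Here, GI50 denotes the concentration required for 50% inhibition of growth.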 The source made the active and inactive calls. Cut-off read from the data, not from the text of the source: active = GI50 up to about 1.1 µM and inactive = higher. Bounds are passed on as bounds.

`Cn1cc2ccccc2c1-c1nc(N)nc(F)n1`: the GI50 in the experiment on DLD-1 is > 100 µM (inactive); in the experiment with DMS-114, 85.3 µM (inactive); in the experiment with KM-20L2, > 100 µM (inactive); with LXFL 529, > 100 µM (inactive); in the experiment with M19-MEL, 54.3 µM (inactive); in the experiment on RXF 631, > 100 µM (inactive). Besides, the GI50 with XF498 is > 100 µM (inactive).

As to `C=C1C(=O)C23C(O)C1CCC2C12CO[C@]3(O)[C@@H](O)C1C(C)(C)CCC2O` (some centres not stated), the GI50 was 15.3 µM (inactive) in the experiment with DLD-1; 5.82 µM (inactive) in the experiment with DMS-114; 11.7 µM (inactive) with HOP-18; 16.1 µM (inactive) in the experiment with KM-20L2; 2.11 µM (inactive) with LXFL 529; 10.7 µM (inactive) in the experiment on M19-MEL. The figures for the GI50 in the experiment with RXF 631 and in the experiment on XF498 were 13.7 µM (inactive) and 2.44 µM (inactive), respectively.

As for `O=C(CCc1nnc2s/c(=C\c3ccc4c(c3)OCO4)c(=O)n12)Nc1cc(Cl)ccc1Cl`, the GI50 with DLD-1, with DMS-114, in the experiment with HOP-18, in the experiment on KM-20L2, in the experiment with LXFL 529 and with M19-MEL was > 100 µM (inactive) in each case. For the same compound, the GI50 in the experiment with RXF 631 and with XF498 was > 100 µM (inactive) throughout.

`COc1c(CC(=O)c2ccccc2)c2ccccc2n1C(C)=O`: the GI50 in the experiment on DLD-1, in the experiment on DMS-114, with HOP-18, in the experiment on KM-20L2, in the experiment on LXFL 529 and in the experiment on M19-MEL was > 100 µM (inactive) each time. For the same compound, the GI50 with RXF 631 and in the experiment on XF498 was > 100 µM (inactive) throughout.

For `N=C(N)Nc1nc2cc(N)ccc2o1`, the GI50 with DLD-1, with HOP-18, in the experiment with KM-20L2, in the experiment with M19-MEL and in the experiment on RXF 631 was > 100 µM (inactive) throughout.

In the case of `CN1CCN(C)C1c1cccc(C2N(C)CCN2C)c1`, the GI50 in the experiment with DLD-1, in the experiment with DMS-114, with KM-20L2, in the experiment with LXFL 529, in the experiment on M19-MEL and with RXF 631 was > 100 µM (inactive) each time.

Turning to `O=C1N(Cl)C(=O)C(c2ccc(Cl)cc2)(c2ccc(Cl)cc2)N1Cl`, the GI50 with DLD-1 is 62.2 µM (inactive); in the experiment on DMS-114, 39.9 µM (inactive); with HOP-18, > 100 µM (inactive); in the experiment with KM-20L2 it was > 100 µM (inactive); in the experiment on LXFL 529 it was 63 µM (inactive); in the experiment on M19-MEL, 39.7 µM (inactive). For the same compound, the GI50 with XF498 was > 100 µM (inactive).

Consider `C#CC1(O)CCC2[C@@H]3CCc4cc(Oc5nc(F)nc(-c6c7ccccc7cn6C)n5)ccc4C3CC[C@@]21C` (some centres not stated), for which the GI50 in the experiment on DLD-1 is > 48.2 µM (inactive); in the experiment on DMS-114, 35.8 µM (inactive); in the experiment on HOP-18, > 100 µM (inactive); with KM-20L2, > 100 µM (inactive); in the experiment on LXFL 529, > 100 µM (inactive); with M19-MEL, > 100 µM (inactive). The GI50 with XF498 is > 100 µM (inactive).

`O=C1c2cc(CCl)sc2C(=O)c2ccsc21`: the GI50 in the experiment on DLD-1 is 0.933 µM (active); with DMS-114, 0.163 µM (active); with HOP-18, 0.264 µM (active); with KM-20L2 it was 1.45 µM (inactive); with LXFL 529, 0.243 µM (active); in the experiment with M19-MEL, < 0.01 µM (active). The GI50 in the experiment with XF498 was 1.73 µM (inactive).

For the compound `COc1ccc(/C(=N/Nc2ccccc2)C(c2ccc(OC)cc2)C2OC(=O)c3ccccc32)cc1` (configuration not stated), the GI50 is > 10 µM (inactive) in the experiment on DLD-1; 50 µM (inactive) in the experiment with DMS-114; 36.6 µM (inactive) with KM-20L2; > 100 µM (inactive) in the experiment on RXF 631; > 100 µM (inactive) in the experiment with XF498.

Consider `CCCN1CN(C(C(=O)N[C@@H]2C(=O)N3C(C(=O)O)=C(C)CSC23)c2ccc(O)cc2)CSC1=S` (some centres not stated), for which the GI50 is > 100 µM (inactive) in the experiment on DLD-1; 52.4 µM (inactive) in the experiment with DMS-114; > 100 µM (inactive) in the experiment on HOP-18; > 100 µM (inactive) in the experiment on KM-20L2; > 100 µM (inactive) in the experiment with LXFL 529; > 100 µM (inactive) with M19-MEL. Moreover, the GI50 in the experiment with XF498 is > 100 µM (inactive).

With `CCCCCCCCCCCCCP(=O)(O)NCC(N)=O`, the GI50 was 43.9 µM (inactive) with DLD-1; 32.2 µM (inactive) with DMS-114; 22 µM (inactive) in the experiment with HOP-18; 98.6 µM (inactive) in the experiment on KM-20L2; 54.3 µM (inactive) in the experiment on LXFL 529; 80.7 µM (inactive) in the experiment with M19-MEL. In addition, the figures for the GI50 in the experiment with RXF 631 and with XF498 were 84.3 µM (inactive) and 64.6 µM (inactive), respectively.

As for `CNC(=O)NCCCCC(NC(=O)OCc1ccccc1)C(=O)OCc1ccccc1` (configuration not stated), the GI50 with DLD-1 was 38.2 µM (inactive); in the experiment with DMS-114, 23.6 µM (inactive); with KM-20L2 it was > 100 µM (inactive); in the experiment with LXFL 529 it was 32.1 µM (inactive); in the experiment with M19-MEL it was 21.8 µM (inactive); in the experiment on RXF 631, 23.6 µM (inactive). Also, in the experiment with XF498, the GI50 was 18.3 µM (inactive).

As to `CC/C(=N/O)C(C)C(=O)CCC(=O)Nc1ccc(Cl)cc1` (configuration not stated), the GI50 in the experiment on DLD-1 is > 100 µM (inactive); in the experiment on DMS-114, > 100 µM (inactive); in the experiment on HOP-18, > 100 µM (inactive); with KM-20L2 it was > 100 µM (inactive); in the experiment with LXFL 529 it was 54.3 µM (inactive); in the experiment with M19-MEL, > 100 µM (inactive). Further, the GI50 in the experiment on XF498 is > 100 µM (inactive).

In the case of `CCc1ccccc1NC(=O)C(=O)C(C#N)c1ccccc1Cl` (configuration not stated), the GI50 with DLD-1, with DMS-114, with HOP-18, in the experiment on KM-20L2, in the experiment with LXFL 529 and with M19-MEL was > 100 µM (inactive) in each case. Moreover, the GI50 in the experiment on RXF 631 and in the experiment on XF498 was > 100 µM (inactive) in each case.

On to `CCOc1ccc(NC(=O)C(=O)C(C(=O)c2ccc3ccccc3c2)C2OC(=O)c3ccccc32)cc1` (configuration not stated), for which the GI50 in the experiment with DLD-1 is 7.87 µM (inactive); with DMS-114 it was 14.8 µM (inactive); with HOP-18, 17.7 µM (inactive); in the experiment on KM-20L2 it was 37.6 µM (inactive); in the experiment with LXFL 529 it was 6.9 µM (inactive); in the experiment on M19-MEL, 13.4 µM (inactive). The GI50 in the experiment with XF498 is 13.8 µM (inactive).
